Experimental data published in patent US6780871B2, “Methods and compositions for treating addiction disorders” (Albany Medical College, priority 2001, dated 2004).

What was measured:
α3β4 nACh receptors = biological target: T1, α3β4 nACh receptors (Rattus norvegicus, UniProt P04757+P12392); assay: whole-cell patch-clamp of transfected HEK293 cells, ganglionic α3β4 nACh receptors, 1 mM ACh; type: cell-based
T1 construct: expressed in transfected cells; host or cells: HEK293 (ATCC CRL1573), transient transfection
Experimental: Human embryonic kidney 293 (HEK293) fibroblasts (ATCC CRL1573) were cultured in minimal essential medium supplemented with 10% fetal bovine serum and 2 mM glutamine (Life Technologies, Rockville, Md.). Cells were plated on poly-D-lysine-coated 35 mm nunc dishes, transfected by the LipofectaminePLUS method (Life Technologies), and examined functionally between 18-48 h post transfection. The following receptor subunit cDNAs were used: nAChR-α3 (nicotinic acetylcholine receptor-α3; accession no. L31621), nAChR-α4 (accession no. L31620), nAChR-β2 (accession no. L31622), nAChR-β4 (accession no. U42976), 5-HT3R-A (5-HT3A receptor; accession no. M74425), NR1 (N-methyl-D-aspartate receptor 1; accession no. X63255), NR2A (accession no. X91561), and NR2B (accession no. M91562). The nAchR and NR clones were rat; the 5-HT3R-A clone was mouse. Co-transfection of enhanced green fluorescent protein (“EGFP”) (10% of total cDNA) provided a marker to identify transfected cells. Transfected cells were selected for EGFP expression and examined by voltage-clamp recording in the whole-cell configuration using an Axopatch 200B patch-clamp amplifier (Axon Instruments, Foster City, Calif.). Thin-walled borosilicate glass microelectrodes (TW150F, World Precision Instruments, Sarasota, Fla.) had resistances of 3-5 MΩ when filled with an internal solution containing (in mM): 135 CsCl, 10 CsF, 10 HEPES (N-[2-hydroxyethyl]piperazine-N′-[2-ethanesulfonic acid]), 5 EGTA (ethylene glycol-bis[β-aminoethyl ether]-N,N,N′,N′-tetraacetic acid), 1 MgCl2, 0.5 CaCl2, pH 7.2. Whole-cell capacitance and series resistance were recorded and adequately compensated using the available circuitry of the amplifier. Current responses were filtered at 1 kHz with an 8-pole Bessel filter (Cygnus Technologies, Delaware Water Gap, Pa.), digitized at 3 kHz, and stored on a Macintosh PowerPC-G3 computer using an ITC-16 interface (Instrutech, Great Neck, N.Y.) under control of the data acquisition and analysis program Synapse (Synergy Research, Gaithersburg, Md.). […] Rapid switching between inputs was achieved using a set of upstream solenoid valves (Lee Co., Westbrook, Conn.) under computer control; the solution exchange rate was ˜5 ms as measured from liquid junction currents.
Transfected HEK293 cells expressing various receptor subunit cDNAs were examined by whole-cell patch-clamp recording with fast perfusion of agonist and drug solutions. […] In FIG. 1A, open bars depict the timing of ACh application; filled bars depict the timing of co-application of 20 μM IBO or 20 μM 18MC; and inhibition was measured relative to control at the end of the drug application (indicated by arrows). […]

NR1/2B receptors = biological target: T2, NR1/2B receptors (Rattus norvegicus, UniProt P35439+Q00960); assay: whole-cell patch-clamp of transfected HEK293 cells, NR1/2B, 100 μM glutamate plus 10 μM glycine; type: cell-based
T2 construct: expressed in transfected cells; host or cells: HEK293 (ATCC CRL1573), transient transfection
Experimental: (§1) Human embryonic kidney 293 (HEK293) fibroblasts (ATCC CRL1573) were cultured in minimal essential medium supplemented with 10% fetal bovine serum and 2 mM glutamine (Life Technologies, Rockville, Md.). Cells were plated on poly-D-lysine-coated 35 mm nunc dishes, transfected by the LipofectaminePLUS method (Life Technologies), and examined functionally between 18-48 h post transfection. The following receptor subunit cDNAs were used: nAChR-α3 (nicotinic acetylcholine receptor-α3; accession no. L31621), nAChR-α4 (accession no. L31620), nAChR-β2 (accession no. L31622), nAChR-β4 (accession no. U42976), 5-HT3R-A (5-HT3A receptor; accession no. M74425), NR1 (N-methyl-D-aspartate receptor 1; accession no. X63255), NR2A (accession no. X91561), and NR2B (accession no. M91562). The nAchR and NR clones were rat; the 5-HT3R-A clone was mouse. Co-transfection of enhanced green fluorescent protein (“EGFP”) (10% of total cDNA) provided a marker to identify transfected cells. Transfected cells were selected for EGFP expression and examined by voltage-clamp recording in the whole-cell configuration using an Axopatch 200B patch-clamp amplifier (Axon Instruments, Foster City, Calif.). Thin-walled borosilicate glass microelectrodes (TW150F, World Precision Instruments, Sarasota, Fla.) had resistances of 3-5 MΩ when filled with an internal solution containing (in mM): 135 CsCl, 10 CsF, 10 HEPES (N-[2-hydroxyethyl]piperazine-N′-[2-ethanesulfonic acid]), 5 EGTA (ethylene glycol-bis[β-aminoethyl ether]-N,N,N′,N′-tetraacetic acid), 1 MgCl2, 0.5 CaCl2, pH 7.2. Whole-cell capacitance and series resistance were recorded and adequately compensated using the available circuitry of the amplifier. Current responses were filtered at 1 kHz with an 8-pole Bessel filter (Cygnus Technologies, Delaware Water Gap, Pa.), digitized at 3 kHz, and stored on a Macintosh PowerPC-G3 computer using an ITC-16 interface (Instrutech, Great Neck, N.Y.) under control of the data acquisition and analysis program Synapse (Synergy Research, Gaithersburg, Md.). Cells were continuously superfused with extracellular solution containing (in mM): 150 NaCl, 3 KCl, 5 HEPES, 1 MgCl2, 1.8 CaCl2, 10 glucose, and 0.1 mg/ml phenol red, pH 7.3 (MgCl2 was omitted from all solutions used for the study of NMDA receptors). […] Control, agonist, and drug solutions were applied to individual cells by rapid perfusion. Solutions were driven by a syringe pump through a flowpipe having 4 inputs that converge at a single common output of approximately 100 μm diameter. Rapid switching between inputs was achieved using a set of upstream solenoid valves (Lee Co., Westbrook, Conn.) under computer control; the solution exchange rate was ˜5 ms as measured from liquid junction currents.
(§2) To study these, transfected HEK293 cells expressing NR1/2A or NR1/2B receptors were voltage-clamped to −70 mV and stimulated with 100 μM glutamate plus 10 μM glycine at 30 s intervals. […] In FIGS. 3A and 3B, open bars depict the timing of agonist application, filled bars depict the timing of co-application of 20 μM IBO or 20 μM 18MC, and inhibition was measured relative to control at the end of the drug application (indicated by arrows).

5-HT3A receptors = biological target: T3, 5-HT3A receptors (Mus musculus, UniProt P23979); assay: whole-cell patch-clamp of transfected HEK293 cells, 5-HT3A, 100 μM serotonin; type: cell-based
T3 construct: expressed in transfected cells; host or cells: HEK293 (ATCC CRL1573), transient transfection
T3 sequence (P23979 24-489): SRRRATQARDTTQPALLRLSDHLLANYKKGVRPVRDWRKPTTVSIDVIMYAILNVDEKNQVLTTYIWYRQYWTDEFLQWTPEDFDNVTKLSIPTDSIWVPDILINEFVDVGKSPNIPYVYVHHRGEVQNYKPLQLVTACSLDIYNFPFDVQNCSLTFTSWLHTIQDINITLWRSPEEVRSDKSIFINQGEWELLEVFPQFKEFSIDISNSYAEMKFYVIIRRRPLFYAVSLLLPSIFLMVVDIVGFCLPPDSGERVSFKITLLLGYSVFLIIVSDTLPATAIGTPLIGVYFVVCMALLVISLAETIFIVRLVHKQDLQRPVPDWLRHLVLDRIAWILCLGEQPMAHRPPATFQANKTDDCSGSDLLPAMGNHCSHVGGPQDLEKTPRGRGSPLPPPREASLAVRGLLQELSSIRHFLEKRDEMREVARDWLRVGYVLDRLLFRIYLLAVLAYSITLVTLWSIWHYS
Experimental: as §1
as §2, with “Transfected” for “To study these, transfected”, “5-HT3A” for “NR1/2A or NR1/2B”, “serotonin” for “glutamate plus 10 μM glycine”, “This is shown in FIG. 4, where” for “In FIGS. 3A and 3B,”

[1] = system: nicotine self-administration; assay: nicotine self-administration; type: in vivo, rat; settings: Example 7, FIGS. 11-12: mecamylamine 0.1 mg/kg i.p., 18-methoxycoronaridine 0.5 mg/kg i.p., dextromethorphan 0.5 mg/kg s.c., bupropion 5 mg/kg i.p.; 5-8 rats
[2] = system: methamphetamine self-administration; assay: intravenous methamphetamine self-administration; type: in vivo, rat

T1 sequence (P04757 26-499): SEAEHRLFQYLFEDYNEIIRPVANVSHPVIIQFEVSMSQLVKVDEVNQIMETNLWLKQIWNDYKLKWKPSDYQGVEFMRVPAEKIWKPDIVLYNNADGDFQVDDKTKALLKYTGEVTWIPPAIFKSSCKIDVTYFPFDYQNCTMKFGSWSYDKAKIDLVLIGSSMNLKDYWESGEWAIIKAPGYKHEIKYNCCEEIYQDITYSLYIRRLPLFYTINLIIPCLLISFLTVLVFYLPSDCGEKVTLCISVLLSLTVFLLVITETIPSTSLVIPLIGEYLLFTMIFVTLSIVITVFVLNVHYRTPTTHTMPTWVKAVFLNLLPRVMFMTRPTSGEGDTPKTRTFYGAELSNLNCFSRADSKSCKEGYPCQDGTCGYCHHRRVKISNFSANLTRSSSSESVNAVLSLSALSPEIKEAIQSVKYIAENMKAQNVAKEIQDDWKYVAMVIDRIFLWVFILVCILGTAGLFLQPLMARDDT
T1 sequence (P12392 21-495): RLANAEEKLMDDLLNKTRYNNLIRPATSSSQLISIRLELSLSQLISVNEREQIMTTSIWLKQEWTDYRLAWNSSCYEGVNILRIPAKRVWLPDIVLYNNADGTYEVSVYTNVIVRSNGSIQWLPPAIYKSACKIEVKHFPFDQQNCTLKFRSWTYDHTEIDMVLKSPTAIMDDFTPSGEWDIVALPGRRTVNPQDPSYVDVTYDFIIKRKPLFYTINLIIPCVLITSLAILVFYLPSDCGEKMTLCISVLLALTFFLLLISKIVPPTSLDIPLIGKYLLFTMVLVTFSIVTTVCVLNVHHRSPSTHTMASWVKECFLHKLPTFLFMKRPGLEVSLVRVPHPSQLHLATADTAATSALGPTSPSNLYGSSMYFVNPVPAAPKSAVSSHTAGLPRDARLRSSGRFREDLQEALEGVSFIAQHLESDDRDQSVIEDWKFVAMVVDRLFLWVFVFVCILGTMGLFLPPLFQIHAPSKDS
T2 sequence (Q00960 27-1482, other chains not shown): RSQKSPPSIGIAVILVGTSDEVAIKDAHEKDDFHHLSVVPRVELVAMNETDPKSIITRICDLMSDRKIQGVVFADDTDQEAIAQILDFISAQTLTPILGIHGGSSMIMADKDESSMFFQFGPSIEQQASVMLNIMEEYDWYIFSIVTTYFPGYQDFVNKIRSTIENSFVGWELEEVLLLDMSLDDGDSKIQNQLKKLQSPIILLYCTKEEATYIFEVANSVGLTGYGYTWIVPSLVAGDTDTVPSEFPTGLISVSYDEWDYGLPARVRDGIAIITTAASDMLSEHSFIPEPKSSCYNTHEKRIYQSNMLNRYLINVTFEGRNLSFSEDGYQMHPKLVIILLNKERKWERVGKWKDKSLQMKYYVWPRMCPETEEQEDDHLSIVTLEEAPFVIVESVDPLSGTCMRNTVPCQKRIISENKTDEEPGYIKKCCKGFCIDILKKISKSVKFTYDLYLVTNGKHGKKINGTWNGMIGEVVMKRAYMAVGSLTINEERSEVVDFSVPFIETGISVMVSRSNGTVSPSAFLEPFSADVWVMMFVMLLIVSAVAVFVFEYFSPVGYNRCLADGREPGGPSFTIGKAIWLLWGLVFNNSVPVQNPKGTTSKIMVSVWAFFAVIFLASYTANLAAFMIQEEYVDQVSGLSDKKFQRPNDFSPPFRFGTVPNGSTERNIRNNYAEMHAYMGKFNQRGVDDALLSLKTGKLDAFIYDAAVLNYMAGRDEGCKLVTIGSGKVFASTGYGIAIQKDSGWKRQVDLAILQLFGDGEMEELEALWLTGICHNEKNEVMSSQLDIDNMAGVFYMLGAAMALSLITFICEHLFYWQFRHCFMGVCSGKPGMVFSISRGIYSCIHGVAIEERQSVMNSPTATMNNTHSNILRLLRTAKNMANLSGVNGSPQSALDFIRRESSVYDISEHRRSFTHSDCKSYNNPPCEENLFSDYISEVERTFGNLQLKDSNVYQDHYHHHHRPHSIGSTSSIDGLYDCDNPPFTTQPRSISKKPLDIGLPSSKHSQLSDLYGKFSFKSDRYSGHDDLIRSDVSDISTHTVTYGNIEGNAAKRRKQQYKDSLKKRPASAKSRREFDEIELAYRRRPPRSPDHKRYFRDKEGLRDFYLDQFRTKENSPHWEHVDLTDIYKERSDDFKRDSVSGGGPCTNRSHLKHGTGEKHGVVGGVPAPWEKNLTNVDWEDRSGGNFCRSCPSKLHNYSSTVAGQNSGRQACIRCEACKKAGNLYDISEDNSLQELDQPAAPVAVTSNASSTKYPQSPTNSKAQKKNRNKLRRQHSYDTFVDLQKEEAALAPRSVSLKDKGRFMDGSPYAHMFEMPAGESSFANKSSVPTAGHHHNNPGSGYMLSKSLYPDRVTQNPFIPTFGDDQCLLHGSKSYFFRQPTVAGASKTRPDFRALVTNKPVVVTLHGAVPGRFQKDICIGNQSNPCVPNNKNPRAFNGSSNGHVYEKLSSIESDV

COCC[C@H]1CC2CN3CCc4c([nH]c5ccccc45)[C@](C(=O)OC)(C2)[C@H]13 [18-methoxycoronaridine]
response to drug applied alone (agonist activity) (α3β4 nACh receptors; 20 μM drug alone, -70 mV): did not produce any response | inhibition of ACh-evoked responses on co-application (α3β4 nACh receptors; 20 μM drug with 1 mM ACh, N=15, FIG. 1A): nearly abolished | response to drug applied alone (agonist activity) (NR1/2B receptors; 20 μM drug alone): did not produce any response | inhibition of agonist-evoked response (NR1/2B receptors; concentrations up to 20 μM, N=5, FIG. 3B): failed to inhibit | response to drug applied alone (agonist activity) (5-HT3A receptors; 20 μM drug alone): did not produce any response | inhibition of serotonin-evoked responses (5-HT3A receptors; 20 μM drug with 100 μM serotonin, FIG. 4): 50±3% | IC50 (5-HT3A receptors; approximate, from 20 μM data, read-out: IC50 at 5-HT3 receptors): ~20 µM | effect on nicotine self-administration (percent of baseline) [1]: none of the drugs administered alone, significantly decreased | effect on methamphetamine self-administration (percent of baseline) ([2]; Example 5, FIG. 6: mecamylamine 1 mg/kg i.p., 18-methoxycoronaridine 2 mg/kg i.p., dextromethorphan 5 mg/kg s.c., 6-7 rats): none of the drugs administered alone, significantly decreased | effect on methamphetamine self-administration (percent of baseline) ([2]; Example 6, FIG. 9: mecamylamine 1 mg/kg i.p., 18-methoxycoronaridine 5 mg/kg i.p., dextromethorphan 10 mg/kg s.c., bupropion 10 mg/kg i.p., 5-9 rats): none of the drugs administered alone, significantly decreased
